Measurements taken from US20250066377A1, “AMINO CHROMEN-2-ONE MODULATORS OF POLRMT” (Pretzel Therapeutics, Inc., priority 2021, published 2025).

Each compound was assayed against POLRMT (Homo sapiens (Human), UniProt O00411) (assay: POLRMT homogeneous TR-FRET mitochondrial transcription assay). Conditions: inhibition of POLRMT; TR-FRET detection of 407 bp RNA transcript; 7.5 nM POLRMT, 15 nM TFB2M, 30 nM TFAM, 60 minutes at 37° C.
POLRMT, sequence (O00411 42-1230): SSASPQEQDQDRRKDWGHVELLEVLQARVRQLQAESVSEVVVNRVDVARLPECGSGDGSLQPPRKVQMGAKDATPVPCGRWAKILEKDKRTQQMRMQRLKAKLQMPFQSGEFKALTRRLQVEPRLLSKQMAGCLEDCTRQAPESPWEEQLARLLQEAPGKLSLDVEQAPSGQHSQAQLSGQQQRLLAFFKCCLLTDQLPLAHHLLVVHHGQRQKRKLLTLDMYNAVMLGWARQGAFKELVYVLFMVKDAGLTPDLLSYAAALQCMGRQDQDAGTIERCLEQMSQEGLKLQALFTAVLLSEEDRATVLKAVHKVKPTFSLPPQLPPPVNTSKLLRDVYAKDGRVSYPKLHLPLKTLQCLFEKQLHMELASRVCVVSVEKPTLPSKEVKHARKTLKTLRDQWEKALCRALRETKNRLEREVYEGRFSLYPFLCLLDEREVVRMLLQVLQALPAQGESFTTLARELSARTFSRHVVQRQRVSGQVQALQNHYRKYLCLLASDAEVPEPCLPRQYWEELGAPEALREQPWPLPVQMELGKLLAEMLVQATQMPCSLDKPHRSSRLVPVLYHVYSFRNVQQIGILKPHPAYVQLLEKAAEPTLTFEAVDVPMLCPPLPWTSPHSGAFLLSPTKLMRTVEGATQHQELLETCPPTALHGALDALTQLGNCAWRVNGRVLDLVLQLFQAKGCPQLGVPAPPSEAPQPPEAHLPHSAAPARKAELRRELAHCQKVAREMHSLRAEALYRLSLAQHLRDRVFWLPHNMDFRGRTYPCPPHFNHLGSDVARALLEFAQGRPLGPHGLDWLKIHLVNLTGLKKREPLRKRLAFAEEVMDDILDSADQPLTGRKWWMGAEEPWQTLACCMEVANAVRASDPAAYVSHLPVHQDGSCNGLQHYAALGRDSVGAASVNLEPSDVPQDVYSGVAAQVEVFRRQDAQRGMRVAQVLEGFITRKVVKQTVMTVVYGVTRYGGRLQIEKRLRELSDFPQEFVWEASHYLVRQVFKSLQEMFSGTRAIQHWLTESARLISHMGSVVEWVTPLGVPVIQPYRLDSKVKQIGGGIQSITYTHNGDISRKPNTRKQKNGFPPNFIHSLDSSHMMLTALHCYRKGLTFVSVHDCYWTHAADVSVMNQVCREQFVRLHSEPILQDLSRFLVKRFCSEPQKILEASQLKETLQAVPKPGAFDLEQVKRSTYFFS
Type: biochemical
Protocol: The inhibitory activity of the compounds of the present invention against POLRMT were determined by assays based on Bergbrede, T., et al., “An adaptable high-throughput technology enabling the identification of specific transcription modulators,” SLAC Discov., 22, 378-386 (2017).
The ability of some compounds of the present invention to inhibit POLRMT were determined in a homogeneous TR-FRET Assay using high-throughput screening in a 384-well plate format. This method is used to monitor the activity of mitochondrial transcription through measurement of its product, a 407 bp long RNA transcript. Detection of the product is facilitated by hybridization of two DNA-oligonucleotide probes to specific and adjacent sequences within the RNA product sequence. Upon annealing of the probes, two fluorophores are coupled directly to an acceptor nucleotide probe (ATTO647, 5′), or introduced via a coupled streptavidin with a biotinylated donor nucleotide probe (Europium cryptate) that is brought into sufficient proximity to serve as a fluorescence-donor-acceptor pair. Thus, a FRET signal at 665 nm is generated upon excitation at 340 nm.
Proteins used as transcription factors (POLRMT: NP_005026.3, TFAM: NP_003192.1, TFB2M: NP_071761.1) are diluted from their stocks to working concentrations of 1 μM, 20 μM and 4 μM respectively, in a dilution buffer containing 20 mM Tris-HCl (pH 8.0), 200 mM NaCl, 10% (v/v) glycerol, 1 mM Dithiothreitol (DTT), 0.5 mM EDTA.
DNA template is a pUC18 plasmid with the mitochondrial light strand promotor sequence (1-477) cloned between HindIII and BamHI sites. The DNA template is restriction linearized proximal to the promotor 3′-end (pUC-LSP).
The reaction mixture (10 uL) containing 7.5 nM POLRMT, 15 nM of TFB2M, 30 nM of TFAM, 0.5 nM of DNA template and 500 μM nucleotide triphosphate mix (NTPs) in a reaction buffer (containing 10 mM Tris-HCl (pH 7.5), 10 mM MgCl2, 40 mM NaCl, 10 mM DTT, 0.005% (w/v) Tween-20, 160 units/ml Rnase inhibitor and 0.1 mg/mL BSA) are dispensed to compounds in microplates, using a Thermo Multidrop® dispenser, and incubated at 37° C. in a VWR INCU-Line incubator for 60 minutes after mixing. No nucleotide triphosphate mix is added to negative control samples. Microplates with compounds to be tested in the assay are prepared from 10 mM compound stocks in 100% DMSO, equal amounts of DMSO without any compound are added to positive control and negative control samples.
During the incubation, a mix of the detection reagents is prepared in a buffer such that the enzymatic reaction is terminated due to chelating of Mg-ions and increased ionic strength, containing 50 mM Tris-HCl (pH 7.5), 700 mM NaCl, 20 mM EDTA, and 0.01% (w/v) Tween-20. Europium-streptavidin is pre-incubated with a 200-fold molar excess of a random sequence oligonucleotide to block unspecific binding of oligo, for two hours at ambient temperature in the dark. Afterwards, the blocked Europium-streptavidin is kept on ice until use.
At the end of the enzymatic reaction time, 5 μL detection oligo mix in the detection buffer is added, and assay plates are mixed and kept at ambient temperature for one hour, protected from light. The concentration of the Acceptor nucleotide oligo (e.g., ATTO647N-5′-[…]-3′) and Donor nucleotide oligo (e.g., bio-5′-AACACATCTCT(-bio)GCCAAACCCCA-bio-3′) in each assay well is 1 nM, and 3 nM, respectively.
After incubation with oligo mix, 5 μL of pre-blocked Europium-streptavidin reagent is dispensed to each assay well, assay plates are again mixed and kept at ambient temperature for one hour, protected from light.
The generated signal is measured with BMG Pherastar microtiter plate reader with a TRF light unit, using excitation at 340 nm, an integration time of 200 μs, and a delay time of 100 μs, before detection at 620 nm and 665 nm. The ratio of donor- and acceptor-fluorescence is used as a measure of the generated transcript product (i.e. enzymatic activity).
For `Cc1ccccc1-c1cc(=O)oc2nc(N(C)CC(=O)O)ccc12` [Example 36, N-methyl-N-(2-oxo-4-(o-tolyl)-2H-pyrano[2,3-b]pyridin-7-yl)glycine], the IC50 was 1 µM. In the case of `CN(CCC(N)=O)c1ccc2c(-c3ccc(F)cc3Cl)cc(=O)oc2n1` [Example 52, 3-((4-(2-chloro-4-fluorophenyl)-2-oxo-2H-pyrano[2,3-b]pyridin-7-yl)(methyl)amino)propanamide], the IC50 is reported as 10 µM. For `Cc1ccccc1-c1cc(=O)oc2nc(N(C)C)ccc12` [Example 01, 7-(dimethylamino)-4-(o-tolyl)-2H-pyrano[2,3-b]pyridin-2-one], the IC50 was 1 µM. `Cc1ccccc1-c1cc(=O)oc2nc(N(C)CCC(N)=O)ccc12` [Example 42] gave an IC50 of 3 µM. `Cc1ccccc1-c1cc(=O)oc2nc(N3CCC(C(N)=O)C3)ccc12` (single isomer, unassigned) [Example 30, 1-(2-oxo-4-(o-tolyl)-2H-pyrano[2,3-b]pyridin-7-yl)pyrrolidine-3-carboxamide] gave an IC50 of 0.9 µM. Work on `COC1CCN(c2ccc3c(-c4ccccc4C)cc(=O)oc3n2)C1` (racemic) [Example 07, 7-(3-methoxypyrrolidin-1-yl)-4-(o-tolyl)-2H-pyrano[2,3-b]pyridin-2-one] yielded an IC50 of 0.4 µM. With `COCC1CCN(c2ccc3c(-c4ccccc4C)cc(=O)oc3n2)C1` (single isomer, unassigned) [Example 31, 7-(3-(methoxymethyl)pyrrolidin-1-yl)-4-(o-tolyl)-2H-pyrano[2,3-b]pyridin-2-one] the IC50 was 0.4 µM. In the case of `COC1CCN(c2ccc3c(-c4ccccc4C)cc(=O)oc3n2)C1` (single isomer, unassigned) [Example 24, 7-(3-methoxypyrrolidin-1-yl)-4-(o-tolyl)-2H-pyrano[2,3-b]pyridin-2-one], the IC50 is reported as 3 µM. For `COC1CCN(c2ccc3c(-c4ccc(F)cc4Cl)cc(=O)oc3n2)C1` (single isomer, unassigned) [Example 25, 4-(2-chloro-4-fluorophenyl)-7-(3-methoxypyrrolidin-1-yl)-2H-pyrano[2,3-b]pyridin-2-one], the IC50 was 1 µM. With `COC(=O)[C@@H](C)N(C)c1ccc2c(-c3ccc(F)cc3Cl)cc(=O)oc2n1` [Example 54, methyl N-(4-(2-chloro-4-fluorophenyl)-2-oxo-2H-pyrano[2,3-b]pyridin-7-yl)-N-methyl-D-alaninate] the IC50 was 0.2 µM. With `Cc1ccccc1-c1cc(=O)oc2nc(N(C)C(C)C(N)=O)ccc12` (single isomer, unassigned) [Example 48, 2-(methyl(2-oxo-4-(o-tolyl)-2H-pyrano[2,3-b]pyridin-7-yl)amino)propanamide] the IC50 was 0.5 µM. Compound `Cc1ccccc1-c1cc(=O)oc2nc(N3CCOCC3C)ccc12` (single isomer, unassigned) [Example 15, 7-(3-methylmorpholino)-4-(o-tolyl)-2H-pyrano[2,3-b]pyridin-2-one] has an IC50 of 2 µM. For `Cc1ccccc1-c1cc(=O)oc2nc(N3CCOCC3)ccc12` [Example 02, 7-morpholino-4-(o-tolyl)-2H-pyrano[2,3-b]pyridin-2-one], the IC50 was 2 µM. In the case of `CN(CCC(=O)O)c1ccc2c(-c3ccc(F)cc3Cl)cc(=O)oc2n1` [Example 55, 3-((4-(2-chloro-4-fluorophenyl)-2-oxo-2H-pyrano[2,3-b]pyridin-7-yl)(methyl)amino)propanoic acid], the IC50 is reported as 12 µM. For `Cc1ccccc1-c1cc(=O)oc2nc(N3CCC(C)(O)C3)ccc12` (single isomer, unassigned) [Example 27, 7-(3-hydroxy-3-methylpyrrolidin-1-yl)-4-(o-tolyl)-2H-pyrano[2,3-b]pyridin-2-one], the IC50 was 1 µM. For `COC(=O)CN(C)c1ccc2c(-c3ccccc3C)cc(=O)oc2n1` [Example 35, methyl N-methyl-N-(2-oxo-4-(o-tolyl)-2H-pyrano[2,3-b]pyridin-7-yl)glycinate], the IC50 was 0.2 µM. `Cc1cccc(C)c1-c1cc(=O)oc2nc(N3CCC[C@H]3C(=O)O)ccc12` [Example 50, (4-(2,6-dimethylphenyl)-2-oxo-2H-pyrano[2,3-b]pyridin-7-yl)-L-proline] gave an IC50 of 0.4 µM. With `CNC(=O)CCN(C)c1ccc2c(-c3ccccc3C)cc(=O)oc2n1` [Example 43] the IC50 was 7 µM. With `COC(=O)[C@H](C)N(C)c1ccc2c(-c3ccc(F)cc3Cl)cc(=O)oc2n1` [Example 53, methyl N-(4-(2-chloro-4-fluorophenyl)-2-oxo-2H-pyrano[2,3-b]pyridin-7-yl)-N-methyl-L-alaninate] the IC50 was 1 µM. Work on `Cc1ccccc1-c1cc(=O)oc2nc(N3CCN(C)CC3)ccc12` [Example 09, 7-(4-methylpiperazin-1-yl)-4-(o-tolyl)pyrano[2,3-b]pyridin-2-one] yielded an IC50 greater than 100 µM. `Cc1ccccc1-c1cc(=O)oc2nc(N3CCC(N(C)C)C3)ccc12` (stereo not shown) [Example 08, 7-[3-(dimethylamino)pyrrolidin-1-yl]-4-(o-tolyl)pyrano[2,3-b]pyridin-2-one] was tested, and the IC50 was 18 µM. `Cc1ccccc1-c1cc(=O)oc2nc(N3CCCC3C(=O)O)ccc12` (single isomer, unassigned) [Example 38, 1-(2-oxo-4-(o-tolyl)-2H-pyrano[2,3-b]pyridin-7-yl)pyrrolidine-2-carboxylic acid] showed an IC50 of 1 µM. `Cc1ccccc1-c1cc(=O)oc2nc(N3CCC(F)(F)C3)ccc12` [Example 17, 7-(3,3-difluoropyrrolidin-1-yl)-4-(o-tolyl)-2H-pyrano[2,3-b]pyridin-2-one] was tested, and the IC50 was 0.6 µM. Work on `Cc1ccccc1-c1cc(=O)oc2nc(N(C)CC(=O)NCC(=O)O)ccc12` [Example 60, N-methyl-N-(2-oxo-4-(o-tolyl)-2H-pyrano[2,3-b]pyridin-7-yl)glycylglycine] yielded an IC50 of 6 µM. `Cc1cccc(C)c1-c1cc(=O)oc2nc(N(C)CC(N)=O)ccc12` [Example 56, 2-((4-(2,6-dimethylphenyl)-2-oxo-2H-pyrano[2,3-b]pyridin-7-yl)(methyl)amino)acetamide] gave an IC50 of 0.2 µM. With `Cc1ccccc1-c1cc(=O)oc2nc(N3CCC(C(N)=O)C3)ccc12` (racemic) [Example 16, 1-(2-oxo-4-(o-tolyl)-2H-pyrano[2,3-b]pyridin-7-yl)pyrrolidine-3-carboxamide] the IC50 was 2 µM. `CNC(=O)CN(C)c1ccc2c(-c3ccccc3C)cc(=O)oc2n1` [Example 39, N-methyl-2-[methyl-[4-(o-tolyl)-2-oxo-pyrano[2,3-b]pyridin-7-yl]amino]acetamide] gave an IC50 of 1 µM. `CCN(C)c1ccc2c(-c3ccccc3C)cc(=O)oc2n1` [Example 05, 7-(ethyl(methyl)amino)-4-(o-tolyl)-2H-pyrano[2,3-b]pyridin-2-one] gave an IC50 of 0.4 µM. In the case of `Cc1ccccc1-c1cc(=O)oc2nc(N3CC4(COC4)C3)ccc12` [Example 10, 7-(2-oxa-6-azaspiro[3.3]heptan-6-yl)-4-(o-tolyl)-2H-pyrano[2,3-b]pyridin-2-one], the IC50 is reported as 86 µM. With `Cc1ccccc1-c1cc(=O)oc2nc(N3CCC(C)(O)C3)ccc12` (single isomer, unassigned) [Example 28, 7-(3-hydroxy-3-methylpyrrolidin-1-yl)-4-(o-tolyl)-2H-pyrano[2,3-b]pyridin-2-one] the IC50 was 1 µM. `CN(CC(=O)O)c1ccc2c(-c3ccc(F)cc3Cl)cc(=O)oc2n1` [Example 44, N-(4-(2-chloro-4-fluorophenyl)-2-oxo-2H-pyrano[2,3-b]pyridin-7-yl)-N-methylglycine] was tested, and the IC50 was 5 µM.
